The values that follow come from ChEMBL document CHEMBL1201862, “PubChem BioAssay data set” (2004).

What all share (assay): inhibition of tumour cell growth, NCI panel, 48 h
Assay [1] deals with DLD-1.
The test system of assay [2] is XF498.
The test system of assay [3] is LXFL 529.
Assay [4] relates to MDA-MB-231.
Assay [5] relates to BT-549.
Assay [6] relates to M19-MEL.

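Grown in 96-well plates, cells were treated for 48 hours with each compound at five concentrations. Insufficient inhibition: endpoint recorded as highest concentration tested. GI50 marks 50% less growth.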 Activity calls are given as the source filed them. No stated cut-off is given here; in the data, active = GI50 up to about 1.1 µM and inactive = higher. Some results are limits rather than exact numbers.

With `NC(CO)c1ccccc1` (stereo not given), the GI50 in assay [1], in assay [2] and in assay [3] was > 100 µM (inactive) throughout.
Consider `C/C=C(/C)C(=O)O[C@@H]1c2c(C)coc2C[C@H]2CC[C@H](O)[C@H](C)[C@]21C`, for which the GI50 in assay [4] was 71.6 µM (inactive).
On to `COc1ccc2[nH]c3c(C)c4cc[n+](C)cc4c(C)c3c2c1`, for which the GI50 is 1.87 µM (inactive) in assay [1], 1.87 µM (inactive) in assay [5] and 0.944 µM (active) in assay [6].
As for `c1ccc(COc2ccc(CC3SCCCS3)cc2)cc1`, the GI50 in assay [4] is 74.1 µM (inactive).
Regarding `Cc1cc(O)nc(NN2C(Cl)C(=O)C2c2cccc(O)c2)n1` (stereo not given), the results for the GI50 in assay [6] and in assay [3] were 6.19 µM (inactive) and 5 µM (inactive), respectively.
